In general, MIC refers to the lowest concentration that inhibits growth of the organism.

≈ marks a conversion by molar mass, not a printed value.

Assay in all cases: ≥ marks a high value that may be exact or a test limit, other limits are often not marked, values filed in µg/mL are converted to µM
Test [1] relates to Bacillus subtilis KCTC 3068.
In test [2] the test system is Escherichia coli CCARM 1229.
The test system of test [3] is Escherichia coli CCARM 1238.
Test [4] concerns Escherichia coli KCTC 1682.
Test [5] relates to Pseudomonas aeruginosa KCTC 1637.
In test [6] the test system is Salmonella typhimurium CCARM 8003.
The test system of test [7] is Salmonella typhimurium KCTC 1926.
Test [8] relates to Staphylococcus aureus CCARM 3089.
Test [9] relates to Staphylococcus aureus CCARM 3114.
In test [10] the test system is Staphylococcus aureus KCTC 1621.
In test [11] the test system is Staphylococcus epidermidis KCTC 1917.
Test [12] relates to Bacillus anthracis Sterne 34F2.
Test [13] concerns Bacillus subtilis var. niger ATCC 9372.
In test [14] the test system is Escherichia coli K91BK.
Test [15] relates to Bacillus subtilis ATCC 6633.
Test [16] relates to Escherichia coli ATCC 10536.
Test [17] relates to Escherichia coli DH5alpha.
Test [18] has as its system Staphylococcus aureus ATCC 9144.
Test [19] concerns Escherichia coli IFO 3972.
Test [20] relates to Staphylococcus aureus FDA 209P.

Take `CC[C@H](C)[C@H](NC(=O)[C@H](C)NC(=O)[C@H](CC(C)C)NC(=O)[C@H](Cc1c[nH]c2ccccc12)NC(=O)[C@H](CC(C)C)NC(=O)[C@@H](N)CCCN=C(N)N)C(=O)NCC(=O)N[C@@H](CCCN=C(N)N)C(=O)NCC(N)=O` [RLWLAIGRG]: the MIC in test [1] was 8 µM (≈ 8.32 µg/mL); in test [2], 16 µM (≈ 16.6 µg/mL); in [3] it was 8 µM (≈ 8.32 µg/mL); in test [4], 8 µM (≈ 8.32 µg/mL); in test [5], not below 32 µM; in test [6], not below 32 µM. In addition, the MIC in test [7] was not below 32 µM; in test [8], 16 µM (≈ 16.6 µg/mL); in [9] it was not below 32 µM; in [10] it was 16 µM (≈ 16.6 µg/mL); in test [11], 4 µM (≈ 4.16 µg/mL).

With `CC(=O)N[C@@H](CCCN=C(N)N)C(=O)NCC(=O)N[C@@H](CCCN=C(N)N)C(=O)NCC(=O)N[C@@H](CCCCN)C(=O)N[C@@H](CCC(N)=O)C(=O)NCC(=O)NCC(=O)N[C@@H](CCCCN)C(=O)N[C@H](C(=O)N[C@@H](CCCN=C(N)N)C(=O)N[C@@H](C)C(=O)N[C@@H](CCCCN)C(=O)N[C@@H](C)C(=O)N[C@@H](CCCCN)C(=O)N[C@H](C(=O)N[C@@H](CCCN=C(N)N)C(=O)N[C@@H](CO)C(=O)N[C@@H](CO)C(N)=O)[C@@H](C)O)C(C)C` [RGRGKQGGKVRAKAKTRSS], the MIC in [12], in [13] and in [14] was not below 100 µM each time.

Turning to `CC[C@H](C)[C@H](NC(=O)[C@H](CCCN=C(N)N)NC(=O)[C@@H](NC(=O)[C@@H](NC(=O)[C@@H]1CCCN1C(=O)[C@@H](NC(=O)[C@@H](NC(=O)[C@H](C)NC(=O)[C@@H]1CCCN1C(=O)CNC(=O)[C@H](Cc1ccc(O)cc1)NC(=O)[C@H](CCCCN)NC(=O)[C@H](CCCCN)NC(=O)[C@H](Cc1c[nH]c2ccccc12)NC(=O)[C@H](C)NC(=O)[C@H](CCCN=C(N)N)NC(=O)[C@H](CC(C)C)NC(=O)[C@@H](NC(=O)[C@H](CCCCN)NC(=O)[C@H](CCCN=C(N)N)NC(=O)CNC(=O)[C@H](CC(C)C)NC(=O)[C@H](CO)NC(=O)[C@H](CCCN=C(N)N)NC(=O)[C@H](CC(C)C)NC(=O)CNC(=O)CN)[C@@H](C)CC)[C@@H](C)CC)C(C)C)[C@@H](C)CC)[C@@H](C)CC)C(N)=O` [GGLRSLGRKILRAWKKYGPAIVPIIRI], the MIC in [15] worked out at 1.7 µM (≈ 5.15 µg/mL); in test [16] it was 2.5 µM (≈ 7.58 µg/mL); in test [17] it was 2.7 µM (≈ 8.19 µg/mL); in [18] it was 3.8 µM (≈ 11.5 µg/mL).

For the compound `NCCCC[C@H](NC(=O)[C@H](CCCN=C(N)N)NC(=O)[C@H](CCCN=C(N)N)NC(=O)[C@H](CCCN=C(N)N)NC(=O)[C@@H]1CCCN1)C(=O)O` [PRRRK], the MIC in test [19] and in test [20] was not below 500 µM throughout.

Source of the values: DBAASP.
